Assay results from patent US20100120775A1, “Farnesoid X Receptor Agonists” (SMITHKLINE BEECHAM CORPORATION, priority 2006, published 2010).
“Also recorded” adds a separate entry of the source.

Columns and labels:
[1] = system: high-fat diet fed obese mice; test: Effects of FXR agonists on diet induced obese mice; format: in vivo, C57BL mice; conditions: 10, 30, 100 mg/kg twice a day orally; for body fat mass: QMR; for NEFA / cholesterol / glycerol / insulin / triglyceride: serum
Protocol: Methods: Male 20 to 25 g C57BL mice (Charles River, Indianapolis, Ind.) were housed at 72° F. and 50% relative humidity with a 12 h light and dark cycle and fed with standard rodent chow (Purina 5001, Harlan Teklad, Indianapolis, Ind.) or a high-fat diet (TD93075, Harlan Teklad, Indianapolis, Ind.) for eight weeks. After three weeks, mice on high-fat diet were randomized to vehicle or treatment groups based on fasting glucose and body weight. Starting from the fifth week, mice were given either vehicle or the compound in Example 1 (10, 30, and 100 mg/kg) or the compound in Example 5 (10, 30, 100 mg/kg) twice a day orally. Mice on the standard rodent chow were also given vehicle as a control. Body composition was measured using the quantitative magnetic resonance (QMR) method before and at the end of compound treatment. […] Serum chemistry levels were measured using the Instrumentation Laboratory Ilab600TM clinical chemistry analyzer (Instrumentation Laboratory, Boston, Mass.).

[2] = system: mice on a lithogenic diet; conditions: cited from earlier work
[3] = system: ob/ob mice; conditions: male ob/ob mice; 30 mg/kg intraperitoneally; cited from earlier work
[4] = system: mice on high-fat diet; conditions: cited from earlier work
[5] = system: bile duct-ligated mouse; conditions: bile duct-ligated mouse model; cited from earlier work
[6] = system: db/db mice; conditions: cited from earlier work
[7] = system: rodent models of hepatic fibrosis; conditions: multiple rodent models; cited from earlier work
[8] = system: hepatic stellate cells (HSC); conditions: cultured HSCs; cited from earlier work
[9] = target: T1, Human FXRα Ligand Binding Domain (Homo sapiens, UniProt Q96RI1); test: FXR Cofactor Binding Assay (FXR LBD / SRC-1 peptide, time resolved fluorescence); conditions: FXRα LBD with biotinylated SRC-1 (LCD2, 676-700) peptide, read-out: Activity (pEC50) (converted)
T1 construct: polyhistidine (pRSET-A vector) (N); made in house; host or cells: E. coli BL21 (DE3), pRSET-A vector
T1 sequence (Q96RI1 237-472 isoform Q96RI1-2): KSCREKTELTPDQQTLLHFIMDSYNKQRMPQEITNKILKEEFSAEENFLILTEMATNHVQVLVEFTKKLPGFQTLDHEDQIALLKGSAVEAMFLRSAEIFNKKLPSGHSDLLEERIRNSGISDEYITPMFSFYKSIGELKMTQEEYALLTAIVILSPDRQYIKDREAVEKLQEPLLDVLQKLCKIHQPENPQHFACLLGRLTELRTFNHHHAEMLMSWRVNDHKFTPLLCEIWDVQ
Excerpt: Determination of a ligand mediated cofactor peptide interaction to quantify ligand binding to the nuclear receptor Farnesoid X Receptor (FXR). The method measures the ability of putative ligands to modulate the interaction between the purified bacterial expressed FXRα ligand binding domain (LBD) and a synthetic biotinylated peptide based on residues 676-700 of steroid receptor coactivator-1 (SRC-1) (LXXLL-containing domain-2 where L is the amino acid leucine and X indicates any other amino acid (LCD2), 676-700). The sequence of the SRC-1 peptide used is as published in Iannone, M. A., et al., 2001 Cytometry 44:326-337 where the N-terminus was biotinylated (B) and the C-terminus was amidated. Detection of the associated complex was measured by time resolved fluorescence (TRF). The purified LBD of FXR was labeled with biotin then mixed with stoichiometric amounts of allophycocyanin (APC) labeled streptavidin (Molecular Probes). The biotinylated peptide was then mixed with a ½ stoichiometric amount of europium labeled streptavidin (Wallac Inc). Each was then blocked with a 5 fold excess of biotin and allowed to equilibrate for 15 min. Equimolar amounts of receptor and peptide were mixed together and were allowed to equilibrate for at least 30 min prior to the addition to either a variable or constant concentrations of the sample for which the affinity is to be determined. After equilibration, the time-resolved fluorescent signal was quantitated using a fluorescent plate reader. The affinity of the test compound was estimated from a plot of fluorescence versus concentration of test compound added.
A basal level of FXR: peptide formation is observed in the absence of added ligand. Ligands that promote the complex formation induce a concentration-dependent increase in time-resolved fluorescent signal. Compounds which bind equally well to both monomeric FXR and to the FXR: peptide complex would be expected to give no change in signal, whereas ligands which bind preferentially to the monomeric receptor would be expected to induce a concentration-dependent decrease in the observed signal.
Human FXRα Ligand Binding Domain (FXRα LBD) was expressed in E. coli strain BL21 (DE3) as an amino-terminal polyhistidine tagged fusion protein. Expression was under the control of an isopropyl-13-D-thiogalactopyranoside (IPTG) inducible T7 promoter. DNA encoding this recombinant protein is subcloned into the pRSET-A expression vector (Invitrogen). The coding sequence of Human FXRα LBD was derived from Genbank accession number U 68233 (amino acids 237 to 472).
Routinely, 30-40 g cell paste (equivalent to 2-3 liters of the fermentation batch) was resuspended in 200-250 mL Tris buffered saline (TBS), pH 7.2 (25 mM Tris-hydroxymethylamino methane (Tris), 150 mM sodium chloride). Cells were lysed by passing 3 times through a French Press and cell debris was removed by centrifugation (30 minutes, 20,000×gravity, 4° C.). The cleared supernatant was filtered through course pre-filters, and TBS, pH 7.2, 500 mM imidazole was added to obtain a final imidazole concentration of 50 mM. This lysate was loaded onto a column (6×8 cm) packed with Sepharose [Ni^|| charged]Chelation resin (Pharmacia) and pre-equilibrated with TBS pH 7.2/50 mM imidazole. After washing to baseline absorbance with equilibration buffer, the column was washed with one column volume of TBS pH 7.2 containing 90 mM imidazole. FXRα LBD was eluted directly with 365 mM imidazole. Column fractions were pooled and dialyzed against TBS, pH 7.2, containing 0.5 mM EDTA and 5 mM DTT. The dialyzed protein sample was concentrated using Centri-prep 10 K (Amicon) and subjected to size exclusion, using a column (3×90 cm) packed with Sepharose S-75 resin (Pharmacia) pre-equilibrated with TBS, pH 7.2, containing 0.5 mM ethylene diamine tetraacetic acid (EDTA) and 5 mM dithiothreitol (DTT). […]

[10] = 100 mg/kg twice a day orally, 100 mg/kg
[11] = db/db mice, oral 30 mg/kg, bid, serum

For CC(C)c1onc(-c2c(Cl)cccc2Cl)c1COc1ccc(-c2ccc3nc(C(=O)O)ccc3c2)cc1 [Example 1, 6-[4-({[3-(2,6-Dichlorophenyl)-5-(1-methylethyl)-4-isoxazolyl]methyl}oxy)phenyl]-2-quinolinecarboxylic Acid], the serum glucose [1] was “decreased”, the body fat mass [1] was “decreased” and the NEFA [1] was “decreased”. For the same compound, the cholesterol [1] was “decreased”, the glycerol [1] was “decreased” and the insulin [1] was “decreased”. For the same compound, the triglyceride [1] was “decreased”.
In the case of CC(C)c1onc(-c2c(Cl)cccc2Cl)c1COc1ccc(/C=C/c2cccc(C(=O)O)c2)c(Cl)c1 [GW4064], the “formation of cholesterol crystals in the bile” value [2] is listed as “prevented”, the body weight [3] is listed as “did not alter” and the fasting blood glucose [3] is listed as “no effect”. For the same compound, the food intake [3] was “did not alter”, the glucose tolerance [3] was “improved” and the insulin concentration [3] was “decreased”. The insulin sensitivity [3] was “enhanced”, the “body weight / high-fat diet induced body weight gain” value [4, 10] was “decrease; also recorded: reduced” and the serum glucose [4, 10] was “decreased”. For the same compound, the serum insulin [4, 10] was “decreased”, the serum triglyceride [4, 10] was “decreased” and the glucose tolerance ([4]; 100 mg/kg twice a day orally, GTT, 100 mg/kg) was “corrected; also recorded: improve”. For the same compound, the liver triglyceride content ([4]; 100 mg/kg twice a day orally) was “reduced”, the body fat mass [4] was “decrease” and the total cholesterol ([4]; serum) was “decrease”. The bacterial overgrowth [5] was “decreased”, the mucosal barrier [5] was “improved” and the “translocation of bacteria to mesenteric lymph nodes” value [5] was “decreased”. The “glycogen storage in the liver” value ([6]; db/db mice) was “enhanced”, the “insulin signalling in the liver” value ([6]; db/db mice) was “enhanced” and the blood glucose ([6]; db/db mice, oral 30 mg/kg, bid) was “decreased”. The “serum β-hydroxybutyrate” value ([6]; db/db mice, oral 30 mg/kg, bid) was “decreased”, the NEFA [6, 11] was “decreased” and the total cholesterol [6, 11] was “decreased”. For the same compound, the triglyceride [6, 11] was “decreased”, the hyperglycemia ([6]; diabetic db/db mice) was “significantly improved” and the hyperlipidemia ([6]; diabetic db/db mice) was “significantly improved”.
In the case of CC[C@H]1[C@@H](O)[C@@H]2[C@H](CC[C@]3(C)[C@@H]([C@H](C)CCC(=O)O)CC[C@@H]23)[C@@]2(C)CC[C@@H](O)C[C@@H]12 [Example 6EtCDCA, 6-ethyl-chenodeoxycholic acid], the hepatic fibrosis [7] is listed as “prevent development and promote resolution”, the “expression of α1(I)collagen” value [8] is listed as “decreased” and the “expression of α-smooth muscle actin” value [8] is listed as “decreased”.
For CC(C)c1onc(-c2c(Cl)cccc2Cl)c1COc1ccc(-c2ccc3cc(C(=O)O)ncc3c2)cc1 [Example 5, 7-[4-({[3-(2,6-Dichlorophenyl)-5-(1-methylethyl)-4-isoxazolyl]methyl}oxy)phenyl]-3-isoquinolinecarboxylic acid], the EC50 [9] was 102 to 1000 nM, the serum glucose [1] was “decreased” and the body fat mass [1] was “decreased”. The NEFA [1] was “decreased”, the cholesterol [1] was “decreased” and the glycerol [1] was “decreased”. The insulin [1] was “decreased” and the triglyceride [1] was “decreased”.
For CC(C)c1onc(-c2c(Cl)cccc2Cl)c1CCCOc1ccc(-c2ccc3nc(C(=O)O)ccc3c2)cc1 [Example 15, 6-[4-({3-[3-(2,6-Dichlorophenyl)-5-(1-methylethyl)-4-isoxazolyl]propyl}oxy)phenyl]-2-quinolinecarboxylic acid], the EC50 [9] was 102 to 1000 nM.
In the case of CC(C)c1onc(CS(=O)(=O)c2c(Cl)cccc2Cl)c1COc1ccc(-c2ccc3nc(C(=O)O)ccc3c2)cc1 [Example 24, 6-[4-({[3-{[(2,6-Dichlorophenyl)sulfonyl]methyl}-5-(1-methylethyl)-4-isoxazolyl]methyl}oxy)phenyl]-2-quinolinecarboxylic acid], the EC50 [9] is reported as 1020 to 10000 nM.
CC(C)c1onc(-c2c(Cl)cccc2Cl)c1COc1ccc(-c2ccc3c(C(=O)O)ccnc3c2)cc1 [Example 4, 7-[4-({[3-(2,6-Dichlorophenyl)-5-(1-methylethyl)-4-isoxazolyl]methyl}oxy)phenyl]-4-quinolinecarboxylic acid] showed an EC50 [9] of 102 to 1000 nM.
In the case of CC(C)c1onc(COc2c(F)cc(F)cc2F)c1COc1ccc(-c2ccc3nc(C(=O)O)ccc3c2)cc1 [Example 19, 6-(4-{[(5-(1-Methylethyl)-3-{[(2,4,6-trifluorophenyl)oxy]methyl}-4-isoxazolyl)methyl]oxy}phenyl)-2-quinolinecarboxylic acid], the EC50 [9] is reported as 102 to 1000 nM.
